Measurements published in US11352637B2, “Methods and compositions for herbicide tolerance in plants” (MONSANTO TECHNOLOGY LLC, priority 2017, dated 2022).
Read-outs that look alike come from different tables or passages of the source.

Columns and labels:
[1] = tested on: seedlings of the R and S Kochia biotypes; assay: Root elongation response of Kochia seedlings; assay type: in vivo, Kochia scoparia; conditions: for Root elongation inhibition of the R Kochia biotype: R biotype seedlings, FIG. 5
Protocol: The root elongation response of seedlings from the R and S Kochia biotypes was tested to determine if the R biotype response was consistent with the Y2H findings. For root elongation studies, plant nutrient media was used, with 0.5% sucrose. Seeds were surface sterilized in 30% bleach with 0.1% Triton-X100 for 10 to 30 minutes, then rinsed twice in sterile water and resuspended in 0.1% agar for plating. Root lengths were measured to the nearest millimeter, and the average root length of 12 individuals was calculated unless otherwise noted.

[2] = tested on: KsIAA16 (R and S alleles) with KsTIR1 and/or KsAFB6; assay: Y2H assay, summary statements over the protein combinations tested; assay type: binding, Kochia scoparia; conditions: for Y2H interaction in the presence of the auxin: any of the protein combinations tested; for Facilitation of interaction of KsIAA16R with KsTIR1 and/or KsAFB6: at the concentrations tested
Protocol: (§1) Yeast two-hybrid (Y2H) studies were conducted using the Matchmaker® Gold Yeast Two-Hybrid System: vectors, transformation protocols and yeast strains (Clonetech Laboratories, Inc.). The coding sequences for the KsIAA16R (SEQ ID NO: 220), KsIAA16S (SEQ ID NO: 218), KsTIR1 (SEQ ID NO: 285), KsAFB6 (SEQ ID NO: 287), KsAFB2 (SEQ ID NO: 289), and KsAFB5 (SEQ ID NO: 291) were PCR amplified using primers specified in Table 2.
(§2) PCR products were gel purified and recombined into NdeI/NotI digested pGADT7 or pGBKT7 vectors using the In-Fusion® cloning system (Clonetech Laboratories, Inc.). The pGBKT7 vector contained the GAL4 DNA binding domain, rendering the fusions as the “bait,” whereas the “prey” were the fusions containing the pGADT7 vector, which contained the GAL4 activation domain. All vectors were first sequence verified and then the listed vector combinations were co-transformed into the yeast strain, Y2HGold. […] Transformants were plated on SC-Trp-Leu plates to select for those containing both plasmids. Four healthy colonies were selected at random and resuspended into 300 μL of 0.1% agar in water. Five μL of this dilution was replica spotted onto each plate. Plates were incubated at 30° C. for 3 days prior to evaluation of colony growth.
(§3) This method enabled the study of the binding/interaction of the Kochia R and S alleles of KsIAA16 with each of the Kochia TIR/AFB homologs (KsTIR1 (SEQ ID NO: 285), and KsAFB6 (SEQ ID NO: 287)) in the absence or presence of 100 μM or 500 μM exogenous concentrations of IAA, NAA, dicamba, and 2,4-D, picloram, triclopyr, quinclorac, fluroxypyr or phenylacetic acid (PAA).

R and S Kochia biotypes = assay: Greenhouse spray test for cross-resistance of Kochia R-biotype; assay type: in vivo, Kochia scoparia; conditions: all treatments, track sprayer, 10 to 15 cm tall plants
From the text: To elucidate whether the Kochia R-biotype is cross resistant to 2,4-D or fluroxypyr, greenhouse grown 10 to 15 cm tall Kochia plants were sprayed with either Dicamba at 0,140, 280, 560, 2240, 4480, 6720, 8960, or 17920 g a.e.ha^−1; 2,4-D at 0, 70, 140, 280, 560, 1120, 2240, 4480, 6720, 8960 g a.e.ha^−1 or fluroxypyr at 0, 17.5, 35, 70, 140, 280, 420, 560, 1120, 2240 g a.e.ha^−1 with a track sprayer. […]

[3] = tested on: KsIAA16S in combination with KsTIR1; assay: Yeast two-hybrid (Y2H) assay: KsIAA16S binding with KsTIR1 in presence of auxin; set-up: species or system Kochia scoparia; conditions: allele KsIAA16S, yeast colony growth
Protocol: as §1
(§4) PCR products were gel purified and recombined into NdeI/NotI digested pGADT7 or pGBKT7 vectors using the In-Fusion® cloning system (Clonetech Laboratories, Inc.). The pGBKT7 vector contained the GAL4 DNA binding domain, rendering the fusions as the “bait,” whereas the “prey” were the fusions containing the pGADT7 vector, which contained the GAL4 activation domain. All vectors were first sequence verified and then the listed vector combinations were co-transformed into the yeast strain, Y2HGold. […] Transformants were plated on SC-Trp-Leu plates to select for those containing both plasmids. Four healthy colonies were selected at random and resuspended into 300 μL of 0.1% agar in water. Five μL of this dilution was replica spotted onto each plate. Plates were incubated at 30° C. for 3 days prior to evaluation of colony growth. […]

[4] = tested on: Kochia F2 progeny (S/S, R/S, R/R); conditions: spray 1120 g/ha
Protocol: To determine whether the KsIAA16R allele co-segregates with the dicamba resistance phenotype, spray tests were performed on Kochia populations comprising S and R plants. Crosses between S and R individuals were performed, utilizing the S biotype as the female and the R biotype as the male in order to identify individuals resulting from cross pollination. […] Several verified heterozygous F1 plants were selected for F2 seed production. In addition, a subset of S/S and R/S individuals from the F1 generation was subjected to dicamba sprays to ensure that the marker could effectively identify the R allele.
To determine whether the KsIAA16R allele co-segregates with the dicamba resistance phenotype, 720 F2 progeny from verified heterozygous F1 parental plants were sampled and genotyped, and tolerance to a dicamba spray concentration double the typical dicamba field use rate (1120 g/ha) was determined. Plant identity was maintained throughout the experiment, and genotype and percent visible dicamba injury was determined for each of the F2 progeny.

[5] = tested on: KsIAA16R in combination with KsTIR1; assay: Yeast two-hybrid (Y2H) assay: KsIAA16R binding with KsTIR1 in presence of auxin; set-up: species or system Kochia scoparia; conditions: compared with KsIAA16S; concentration not given
Protocol: as §1, §4

[6] = tested on: transgenic Arabidopsis carrying AtIAA16P:KsIAA16 constructs; assay: Root elongation inhibition assay of T2 transgenic Arabidopsis on plant nutrient plus IAA or dicamba; assay type: in vivo, Arabidopsis thaliana
From the text: To determine if the presence of the KsIAA16R allele alone was necessary and sufficient to confer dicamba resistance, several transgene expression constructs were generated for study of KsIAA16 in Arabidopsis. Agrobacterium tumefaciens was used to introduce the binary vectors in the plants using the floral dip method (Clough and Bent, 1998). Vectors contained either the ethanol inducible alcA promoter elements (Salter et al., 1998), the constitutive CaMV35S promoter, or the native Arabidopsis IAA16 promoter (AtIAA16P) driving either KsIAA16R (SEQ ID NO: 220) or KsIAA16S (SEQ ID NO: 218). GUS reporter constructs contained a 2.5 kb genomic DNA fragment from directly upstream of KsIAA16, which is expected to contain most of the promoter elements as well as the 5′UTR, driving uidA. All constructs contained either a Spectinomycin resistance gene (SPEC) or a glufosinate resistance gene (BAR) in the T-DNA region to serve as the selectable marker. For all constructs, T1 seed was harvested, surface sterilized, and plated on the appropriate selective media to identify independent T1 transformants. Single seed decent and segregation on selective media was used to estimate transgene insertion number and identify homozygous lines. For induction of the P-Alc promoter, ethanol was added to a final concentration of 0.01% just before plates were poured, and plates were used immediately. All plates were grown in a Percival growth chamber (Percival Scientific, Inc.) at 22° C. with 16 hour day/8 hour night light cycle and a light intensity of […]. Relative humidity was maintained at 50%. GUS assays were performed according to standard protocols. Briefly, a 20 mg/mL X-Gluc (GoldBio, St. Louis, Mo.) stock in dimethylformamide was diluted into 50 mM phosphate buffer, pH 7.0, to a final concentration of 1 mg/mL. This solution was added to plant tissues, and samples were placed under vacuum for 5 minutes to ensure penetration of the solution into the tissues. Samples were covered in foil to prevent light entry and place at 37° C. for 24 hours to allow color development. Staining solution was removed and chlorophyll was cleared by incubating samples in 50% ethanol for several hours.

[7] = tested on: dicamba resistant Kochia biotype
[8] = tested on: KsIAA16R in combination with KsAFB6; assay: Yeast two-hybrid (Y2H) assay: KsIAA16R binding with KsAFB6 in presence of auxin; set-up: species or system Kochia scoparia; conditions: at the concentrations tested
Protocol: as §1, §2, §3

## O=C(O)Cc1ccccc1 [PAA, phenylacetic acid]
[1]; Kochia seedlings, biotype not stated
  Effect on root elongation: had an effect on root elongation
[2]
  Y2H interaction in the presence of the auxin: No interaction

## Nc1c(Cl)c(F)nc(OCC(=O)O)c1Cl [Fluroxypyr, 4-amino-3,5-dichloro-6-fluoro-2-pyridyloxyacetic acid]
R and S Kochia biotypes
  Visible injury at 14 days after treatment (DAT): observed
[2]
  Y2H interaction in the presence of the auxin: No interaction
  Facilitation of interaction of KsIAA16R with KsTIR1 and/or KsAFB6: cannot

## COc1c(Cl)ccc(Cl)c1C(=O)O [Dicamba, 3,6-dichloro-2-methoxybenzoic acid]
[3]; auxin [100 mM] (text: 100 μM)
  Ability to bind in combination with KsTIR1: exhibited interaction
[3]; auxin [500 mM] (text: 500 μM)
  Ability to bind in combination with KsTIR1: exhibited interaction
[4]; R/R individuals
  mean injury rating: 24.6%
[4]; R/S individuals
  mean injury rating: 35.9%
[4]; S/S individuals
  mean injury rating: 82.3%
[4]; genotype R/R
  average injury per genotype (percent visible dicamba injury): about 20%
[4]; genotype R/S
  average injury per genotype (percent visible dicamba injury): about 40%
[4]; genotype S/S
  average injury per genotype (percent visible dicamba injury): about 80%
[5]
  Ability of KsIAA16R to interact with KsTIR1 in the presence of the auxin: decreased ability to interact
R and S Kochia biotypes
  Visible injury at 14 days after treatment (DAT): observed
[6]; four independent transformant lines carrying AtIAA16P:KsIAA16R
  Resistance in root elongation inhibition assay: showed resistance
[6]; line AtIAA16P:KsIAA16R_T2-1, +5 μM auxin
  Root Length (in mm) of T2 transgenics on plant nutrient plus auxin: 12.42 ± 1.27 mm
[6]; line AtIAA16P:KsIAA16R_T2-2, +5 μM auxin
  Root Length (in mm) of T2 transgenics on plant nutrient plus auxin: 15.5 ± 1.45 mm
[6]; line AtIAA16P:KsIAA16R_T2-3, +5 μM auxin
  Root Length (in mm) of T2 transgenics on plant nutrient plus auxin: 15.58 ± 1.57 mm
[6]; line AtIAA16P:KsIAA16R_T2-4, +5 μM auxin
  Root Length (in mm) of T2 transgenics on plant nutrient plus auxin: 17.5 ± 2.12 mm
[6]; line AtIAA16P:KsIAA16S_T2-1, +5 μM auxin
  Root Length (in mm) of T2 transgenics on plant nutrient plus auxin: 13.50 ± 1.01 mm
[6]; line AtIAA16P:KsIAA16S_T2-2, +5 μM auxin
  Root Length (in mm) of T2 transgenics on plant nutrient plus auxin: 11.42 ± 1.28 mm
[6]; line AtIAA16P:KsIAA16S_T2-3, +5 μM auxin
  Root Length (in mm) of T2 transgenics on plant nutrient plus auxin: 14.17 ± 0.9 mm
[6]; line AtIAA16P:KsIAA16S_T2-4, +5 μM auxin
  Root Length (in mm) of T2 transgenics on plant nutrient plus auxin: 10.67 ± 0.72 mm
[6]; non-transgenic WT, +5 μM auxin
  Root Length (in mm) on plant nutrient plus auxin: 9.08 ± 0.66 mm
[6]; only one of the four lines carrying AtIAA16P:KsIAA16S
  Resistance in root elongation inhibition assay: very slight resistance
[1]
  Root elongation inhibition of the R Kochia biotype: resistant
[7]
  fold increase in dicamba resistance: ~30 fold
[2]
  Facilitation of interaction of KsIAA16R with KsTIR1 and/or KsAFB6: cannot

## O=C(O)COc1ccc(Cl)cc1Cl [2,4-D, 2,4-dichlorophenoxyacetic acid]
[8]
  Interaction between KsIAA16R and KsAFB6 in the presence of the auxin: not observed
[5]
  Ability of KsIAA16R to interact with KsTIR1 in the presence of the auxin: decreased ability to interact
R and S Kochia biotypes
  Visible injury at 14 days after treatment (DAT): observed
[1]
  Root elongation inhibition of the R Kochia biotype: resistant
[2]
  Facilitation of interaction of KsIAA16R with KsTIR1 and/or KsAFB6: cannot
